Experimental data published in patent publication US8367659B2, “Oxazinyl isoflavonoid compounds, medicaments and use” (Marshall Edwards, Inc., priority 2007, dated 2013).

Legend:
[1] = system: THP-1 cells; test: Cell viability of THP-1 cells in the NFκB assay; type: cell-based, human; settings: 50 μM and 100 μM
Method: In brief, genetically modified THP-1 cells were seeded into wells of a 96-well plate (50×10^3 cells/well) in the presence of RPMI 1640 medium (70 μl). TNFα was added to each well (10 μl) to give a final concentration of 7.5 ng/ml. Dialyzed bovine serum was added (10 μl). Compounds dissolved in DMSO (10 μL) were then added (5 wells for each compound). Each plate contained a no-cell control (4 wells), a no-serum control (4 wells) and two serum controls. Plates were incubated for 5 h at 37° C. to allow for NFκB-stimulated beta-lactamase production. LiveBLAzer™ FRET B/G Substrate (CCF4-AM) substrate was then added to assay. CCF4-AM is a Forster resonance energy transfer (FRET) based substrate for beta-lactamase developed by Invitrogen Corp. Once CCFA-AM enters a cell, it is converted to negatively charged CCF4 by endogenous esterases. Excitation of this substrate at 409 nm leads to efficient FRET between the coumarin and fluorescein moieties, resulting in a green fluorescence detectable at 530 nm. The presence of beta-lactamase leads to cleavage of CCF4 and results in a loss of FRET, resulting in a robust blue fluorescent signal detectable at 460 nm. Thus, activity of beta-lactamase (a marker of NFκB-promoter activity) is measured as a product to substrate ratio (blue/green fluorescence ratio: 460 nm/530 nm). […]

[2] = system: human umbilical vein smooth muscle cells (HUVSMC); test: Proliferation of human umbilical vein smooth muscle cells (MTT); type: cell-based
Method in brief: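 Read-out is MTT absorbance expressed as test/control*100−100 versus FCS-stimulated untreated controls. Serum-starved smooth muscle cells (1.6×10^3/well, 20 h without FCS) got 10 μM final analogue for 1 h before 10% FCS, then grew about 5 days to control confluence.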

[3] = system: PMA-induced ear oedema; test: PMA-induced ear swelling in mice; type: in vivo, BALB/c mice; settings: 25 mg/kg i/p; 5 h after PMA
Method: Groups of 5-6 female BALB/c mice (ARC, WA, Australia), weighing 15-21 g were injected intraperitoneally (i/p) with test compound at 25 mg/kg delivered in polyethylene glycol (PEG) 400: phosphate buffered saline (PBS) 1:1 or ethanol: propanediol: PBS 4:9:7 either 30 min prior to or immediately before the inflammogen was applied to the ears. Mice were anaesthetised using isoflurane and baseline thickness of both ears was measured using a spring micrometer. Each mouse received a total of 20 μL of either AA in ethanol (50 mg/ml or 200 mg/ml) or PMA in either ethanol or acetone (0.2 mg/ml) applied to the inner and outer surfaces of each pinna (i.e. 0.5 mg or 2 mg AA or 2 μg PMA per ear). Mice were anaesthetised again to re-measure the ears at 1 h post-AA application and 5 h after PMA. The difference in ear swelling pre- and post-application of inflammogen for each ear was calculated, and the average for the two ears of each mouse taken. The difference in mean swelling of each test group compared to the group given vehicle alone was calculated using a general ANOVA using Dunnett's Multiple Comparison test when multiple compounds were tested in the one experiment or a two-tailed […] t-test when only one compound was tested (Prism 4, Graphpad Software). The data has been presented graphically as the mean percentage inhibition of oedema, calculated as: […]. Results

[4] = system: unstimulated lymphocytes; test: Unstimulated lymphocytes, viable cell number (MTT); type: cell-based, Skh-1:HR 1 (hairless) mice; settings: 10 μM; absence of mitogenic stimulation
Method: Male Skh-1:HR 1 (hairless) mice, approximately six weeks old were killed by cervical dislocation. Single cell suspensions were made from the spleen and erythrocytes were lysed in buffer (0.14 M NH4Cl, 17 mM Tris, pH 7.2). The remaining splenocytes were cultured in RPMI-1640 (Gibco) supplemented with 10% (v:v) FBS, 200 mM L-glutamine, penicillin/streptomycin and […] 2-mercaptoethanol. Splenocytes were added to quadruplicate wells containing either concanavalin A (ConA, Sigma-Aldrich—0.4 μg/well), LPS (Sigma-Aldrich—1 μg/well) or no mitogen, as well 10 μM of test compound in DMSO. Samples were analysed after 3 days incubation at 37° C. in 5% CO2 in air. Methylthiazoletetrazolium (MTT) is bioreduced by viable cells into a coloured formazan product that is soluble in DMSO. Thus the quantity of formazan product is directly proportional to the number of living cells in culture, and can be measured using a spectrophotometer at 570 nm. MTT was added to each well, incubated for a further 4 hrs and then colour developed with 0.04 N HCl in isopropanol. Culture supernatants were stored after collection at −80° C. and analysed by ELISA (BD Biosciences) for IFN-γ (a Th-1 cytokine) and for T cells alone, IL-6 (a Th-2 cytokine).

[5] = system: HT29; test: Anti-cancer activity, HT-29 colon adenocarcinoma cells (MTT); type: cell-based; settings: Homo sapiens, HT-29, 120 h, 5 days, read-out: IC50 μM, HT29 Colorectal
[6] = system: MDA-MB-468; test: Anti-cancer activity, MDA-MB-468 breast cancer cells (MTT); type: cell-based; settings: Homo sapiens, MDA-MB-468, 120 h, 5 days
[7] = system: NCI-H460; test: Anti-cancer activity, NCI-H460 large cell lung cancer cells (MTT); type: cell-based; settings: Homo sapiens, NCI-H460, 120 h, 5 days, read-out: IC50 μM, NCI-H460 Lung (NSCLC)
[8] = system: A10 smooth muscle cells; test: Proliferation of A10 smooth muscle cells from the media of rat aorta; type: cell-based; settings: A10, 72 h, three days, read-out: IC50, inhibition of proliferation in A10 cells
Method: The effect of test compounds on human umbilical vein smooth muscle cells (HUVSMC), was examined. Cells, tissue explants from a neonate (HRI—passage 2), were seeded into 96 well plates at 1×10^3 cells per well, and allowed to attach for 24 hours. They were then washed twice and incubated in medium without foetal calf serum (FCS) for 24-48 hours to serum-starve them. Test compounds were prepared in medium without FCS and added to the plates and incubated for one hour. Medium with FCS was added to give a final concentration of 10% and the plates incubated for 4-5 days until the controls were just confluent.
The effect of test compounds on rat aortic smooth muscle cell line (A7r5) and another cell line from the media of rat aorta (A10) was examined. The methodology was the same as for HUVSMC, except that the cells were treated with compound for three days.

IC50 [5]	IC50 [6]	IC50 [7]	SMILES	cell viability [1]	IC50 ([2]; Homo sapiens, average over three different assays, 4-5 days, read-out: average IC50, inhibition of proliferation of HUVSMC)	% Change compared with vehicle [3]	Change in ear thickness (mean ± SD, × 0.01 mm) [3]	reduction of viable cell numbers [4]	IC50 [8]	effect on proliferation of HUVSMCs induced by FCS ([2]; 10 μM, 10% FCS, 5 days, FIG. 8)
20.6 ± 2.1 µM	5.25 ± 2.1 µM	4.61 µM	Oc1ccc(C2=Cc3cc4c(cc3OC2)OCN(Cc2ccccc2)C4)cc1 [Compound 1, 4-(3-Benzyl-2,3,4,8-tetrahydrochromeno[6,7-e][1,3]oxazin-7-yl)phenol]	reduced cell viability	15 µM	−9%	28.9 ± 3.1 × 0.01 mm	approximately 50%	11 µM	
11.8 ± 0.7 µM	4.87 ± 2.6 µM	8.77 ± 3.7 µM	CC(c1ccccc1)N1COc2cc3c(cc2C1)C=C(c1ccc(O)cc1)CO3 (stereo not drawn) [Compound 2, 4-(3-(1-Phenylethyl)-2,3,4,8-tetrahydrochromeno[6,7-e][1,3]oxazin-7-yl)phenol]	reduced cell viability		−3%	30.9 ± 2.2 × 0.01 mm	approximately 50%		significantly inhibited the proliferation
			Oc1cccc(C2=Cc3ccc(O)cc3OC2)c1 [Compound 37-DHE, 3′,7-dihydroxy-isoflav-3-ene, reference compound]						31 µM	
